The IC50 is the point on the concentration scale where inhibition reaches its midpoint. A word on the Kd: it is the constant that tells how readily two partners part at equilibrium.

SMILES strings stand for the structures.

One test has as its target PDHK2 (Homo sapiens (Human), UniProt Q15119). Description: Biochemical activity testing of PDHK2: PDC inactivation assay. The note with it: human rec PDHK2, 5 μM ATP, read-out: IC50 PDHK2 (enzyme assay). The procedure, abridged: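 Human recombinant PDHK2 (137 nM final) and porcine heart PDC (20 mU/ml) preincubated with compound 30 min at room temperature, pH 7.0; kinase reaction started with 5 μM ATP, 30 min at 37° C. Residual PDC activity read as NADH fluorescence increase over 45 min; IC50 referenced to inhibitor-free reaction and 3 mM DCA.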

The next test concerns the target human PDHK2 (12-407) (Homo sapiens (Human), UniProt Q15119). Description: Isothermal titration calorimetry (ITC). Conditions: 30° C., pH 7.5; read-out: Binding (ITC) KD. The procedure, abridged:
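Untagged PDHK2 (12-407) from E. coli at 50 μM titrated into 5 μM compound at 30° C in pH 7.5 HEPES/KCl/MgCl2/phosphate buffer, ≤1% DMSO. One-site fit gave KA, ΔH^obs and N after heat-of-dilution correction; protein concentration referenced to a standard inhibitor and compound concentration adjusted to 1:1 stoichiometry.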
(In general: In ITC the heat of successive injections is recorded.)

Test [1] has as its system PDH-E1alpha (pSer300) in HEK293T cells. Description: Cellular immunofluorescence assay (Anti-PDH-E1alpha (pSer300)) in HEK293T cells. The note with it: Homo sapiens, HEK-293T, 5 hours incubation, read-out: IC50 (cell data). The class given is cell-based. As for the experimental part: Cellular Assay for Determination of Compound Activities
Compound activities were determined in a cellular immunofluorescence assay.
Human HEK293T cells were seeded into black 384-well plates with clear bottom and grown overnight.
Next day, test compounds were added to the wells and the plates incubated for 5 hours. Following this, cells were fixed with formaldehyde, permeabilised and blocked. The primary antibody, Anti-PDH-E1alpha (pSer300), AP1064 (Merck Millipore) was added and incubated overnight in the plate wells. Next, cells were washed and the secondary antibody, Alexa Fluor 488, goat anti-rabbit ab (A-11008, Invitrogen) was added together with Hoechst 33258 (H3569, Invitrogen) and incubated for 1 hour in the plate wells. Finally, cells were washed and the plates were measured on the laser scanning cytometer acumen hci (TTpLabtech).
The raw data were normalized against a pharmacological inhibitor control and dose response curves were generated by plotting the percent effect values using the software package Genedata screener (Genedata).

Take `CCN(C(=O)c1ccc(C#N)cc1)C1CCN(C(=O)[C@@](C)(O)C(F)(F)F)CC1` [Compound A66, 4-Cyano-N-ethyl-N-[1-((R)-3,3,3-trifluoro-2-hydroxy-2-methyl-propionyl)-piperidin-4-yl]-benzamide]: the figures for the IC50 (at PDHK2; in test [1]) were 2100 nM and 2700 nM, respectively. In addition, the Kd on human PDHK2 (12-407) worked out at 350 nM.

With `CC(C)N(C(=O)c1ccc(C#N)cc1)C1CCN(C(=O)[C@@](C)(O)C(F)(F)F)CC1` [Compound A67, 4-Cyano-N-isopropyl-N-[1-((R)-3,3,3-trifluoro-2-hydroxy-2-methyl-propionyl)-piperidin-4-yl]-benzamide], the half-maximal inhibitory concentration (IC50) worked out at 1600 nM at PDHK2 and 4100 nM in test [1]. Moreover, the Kd at human PDHK2 (12-407) is 470 nM.

Values taken from US10428024B2, “Piperidinyl derivatives” (MERCK PATENT GMBH, priority 2016, dated 2019).
